Article PMC12749748, “Chemically-induced degradation of the endoplasmic-reticulum stress sensor IRE1 by a VHL-recruiting chimera” (Nature Communications, 2025)

Columns and labels:
IRE1 [1] = target: T1, IRE1 (Homo sapiens, UniProt O75460+P40337); experiment: NanoLuc signal IRE1 depletion, WT IRE1-NanoLuc, HEK293T cells; format: cell-based
T1 construct: N2731 (HaloTag-VHL); host or cells: HEK293T
Method: 8 × 10^5 293T cells per well were seeded in 6-well plates (Costar, #3516) and incubated at 37 °C, 5% CO2 for 6 h. A mixture of 0.2 µg ERN1 (IRE1)-NanoLuc Fusion Vector (Promega, NV1321), 2 µg HaloTag-VHL Fusion Vector (Promega, N2731), 6 µl FuGENE HD Transfection Reagent (Promega, E2311), and 100 µL Opti-MEM I reduced serum medium (Gibco, #31985062) per well was incubated at room temperature for 20 min before adding to cells. For expression of IRE1 mutants, site-directed mutagenesis was performed using the ERN1-NanoLuc Fusion Vector as the DNA template, and the transfection mixture was prepared in the same way as WT IRE1. After 18 h, cells from 6-well plates were trypsinized, resuspended in Opti-MEM I reduced serum medium, and reseeded into 96-well plates (Costar, #3917), with or without the addition of HaloTag NanoBRET 618 Ligand (Promega, G9801). After 18 h of incubation, a titration of G6374 (dilutions made in Opti-MEM I reduced serum medium) was added to the cells. After 2 h of G6374 treatment, NanoBRET Nano-Glo Substrate (Promega, N1571) was added to cells. The 96-well plates were imaged by GloMax Discover Microplate Reader (Promega, GM3000) with the default “BRET: NanoBRET 618” protocol (Donor: 450 BP; Acceptor: 600 LP; Integration: 0.3 s). Data analysis was performed according to the user manual.

AMO1 cells = experiment: Incucyte cell confluency, AMO1 cells; format: cell-based; settings: AMO1 shIRE1 cells, titration
Method: For non-adherent AMO1, KMS27, and OPM2 cells, cells were plated at 5000 cells/well in ultra-low attachment (ULA) 96-well plates (Costar, #7007) and centrifuged at 600 × g for 5 min for spheroid formation. For adherent U2OS and Colo201 cells, 2000 cells/well were seeded in a clear flat-bottom 96-well plate (Costar, #3595). Treatments were added at the time of cell seeding, and cells were cultured in complete RPMI media to a final volume of 200 µL/well. Cultures were maintained at 37 °C throughout the duration of the experiment. Cell confluency was tracked using the Incucyte live-cell imaging system (Sartorius S3). Picture frames were captured every 4 h with a 4× objective, and cell confluency (%) from the total well area as a function of time was calculated using the Incucyte software (version 2023 A Rev2).

IRE1 [2] = target: IRE1 (Homo sapiens, UniProt O75460); experiment: IP-IB of K48-linked ubiquitination of endogenous IRE1 in AMO1 cells; format: cell-based; parameters: Immunoblot (IB) analysis of endogenous IRE1 depletion in AMO1 cells; endogenous in cells; host or cells: AMO1; settings: 3 µM, 2 h, compared to DMSO
Method: Cells were lysed in buffer containing 20 mM HEPES 7.2, 150 mM NaCl, and 1% Triton X-100, supplemented with fresh protease and phosphatase inhibitors (Invitrogen, #78440), cleared by centrifugation at 12,000 × g for 10 min, and analyzed by BCA protein assay (Thermo Fisher Scientific, #23227). Equal protein amounts were loaded, separated by SDS-PAGE, electrotransferred to nitrocellulose membranes using the iBLOT2 system (Invitrogen), and blocked in 5% nonfat milk solution for 60 min. Membranes were probed with primary antibodies at 1:1000 dilution in 5% milk at 4 °C overnight. Signal was detected using appropriate horseradish peroxidase (HRP)-conjugated secondary antibodies at 1:10,000 in 5% milk at room temperature for 1–2 h. Bands were visualized by the Azure 600 western blot imaging system (Azure Biosystems). For in vitro ubiquitination assays performed with Me-Ub, bands were visualized by the Odyssey CLx Imager (LI‑COR) after incubating the blots with the IRDye 800CW (LI-COR) secondary antibodies at 1:10,000 in Intercept Blocking Buffer (LI-COR) at room temperature for 1–2 h.
IRE1.LD antibodies were conjugated to agarose beads using the AminoLink® Plus Immobilization Kit (Thermo Fisher, #44894). […]

[3] = tested on: panel of 220 human kinases; experiment: SelectScreen kinase profiling, panel of 220 kinases; format: biochemical; settings: 1 µM, 1 h, besides IRE1
Method: The kinome selectivity of G6374 was assessed at 1 μM for 1 h versus a panel of 220 human kinases (SelectScreen Kinase Profiling Services, Thermo Fisher Scientific). The assays were conducted using either the Z’-LYTE technology to assess inhibition of enzyme activity ([ATP] = Km) or the TR-FRET-based LanthaScreen Eu Kinase Binding assay to assess competitive displacement of an ATP site binding probe. Assay results were normalized to positive and negative controls to determine percent inhibition. Image was created by KNIME Report Designer (KNIME.com AG, Zurich, Switzerland). Kinases for which ATP binding was inhibited by more than 90% were further examined by IB analysis for depletion by G6374 in AMO1 cells (4 h incubation).

T1 sequence (O75460 19-977): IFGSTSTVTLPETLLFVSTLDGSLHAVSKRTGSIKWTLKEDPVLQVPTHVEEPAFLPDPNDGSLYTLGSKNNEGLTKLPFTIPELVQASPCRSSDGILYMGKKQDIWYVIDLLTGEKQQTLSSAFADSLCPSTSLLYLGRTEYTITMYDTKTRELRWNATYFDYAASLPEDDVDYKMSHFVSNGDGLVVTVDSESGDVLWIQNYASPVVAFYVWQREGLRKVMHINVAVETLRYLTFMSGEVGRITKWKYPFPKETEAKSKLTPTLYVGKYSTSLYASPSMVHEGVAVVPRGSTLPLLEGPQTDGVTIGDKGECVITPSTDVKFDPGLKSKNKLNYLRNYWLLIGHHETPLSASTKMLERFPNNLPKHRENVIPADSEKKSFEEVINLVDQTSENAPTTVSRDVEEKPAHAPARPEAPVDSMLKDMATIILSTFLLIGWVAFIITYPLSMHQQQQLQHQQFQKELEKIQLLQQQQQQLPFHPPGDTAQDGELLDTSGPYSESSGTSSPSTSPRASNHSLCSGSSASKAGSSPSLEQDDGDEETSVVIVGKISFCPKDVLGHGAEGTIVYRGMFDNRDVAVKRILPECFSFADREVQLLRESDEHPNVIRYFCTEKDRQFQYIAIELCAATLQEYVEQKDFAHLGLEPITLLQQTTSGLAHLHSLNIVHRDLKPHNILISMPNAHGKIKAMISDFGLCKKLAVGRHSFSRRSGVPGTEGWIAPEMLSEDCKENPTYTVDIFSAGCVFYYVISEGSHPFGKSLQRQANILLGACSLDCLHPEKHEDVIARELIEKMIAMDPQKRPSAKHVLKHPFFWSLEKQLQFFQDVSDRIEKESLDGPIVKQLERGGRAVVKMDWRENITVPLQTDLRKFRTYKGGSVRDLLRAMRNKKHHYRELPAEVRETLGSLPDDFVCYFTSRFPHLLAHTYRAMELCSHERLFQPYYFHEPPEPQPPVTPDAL
T1 sequence (P40337 whole entry): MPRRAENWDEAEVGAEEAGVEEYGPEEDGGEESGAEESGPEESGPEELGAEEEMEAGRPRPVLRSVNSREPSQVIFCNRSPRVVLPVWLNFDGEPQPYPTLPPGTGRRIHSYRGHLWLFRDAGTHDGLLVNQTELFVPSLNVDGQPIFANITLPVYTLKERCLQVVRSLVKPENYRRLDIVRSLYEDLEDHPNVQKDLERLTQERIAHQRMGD
T1 sequence (Q15369 whole entry partner): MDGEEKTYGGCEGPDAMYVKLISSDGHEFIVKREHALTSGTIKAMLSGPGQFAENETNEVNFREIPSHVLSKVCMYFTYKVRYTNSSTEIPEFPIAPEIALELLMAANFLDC
T1 sequence (Q15370 whole entry partner): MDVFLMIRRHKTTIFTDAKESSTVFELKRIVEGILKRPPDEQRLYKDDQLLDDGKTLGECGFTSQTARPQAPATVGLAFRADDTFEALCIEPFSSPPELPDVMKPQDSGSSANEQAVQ
T1 sequence (Q13617 whole entry partner): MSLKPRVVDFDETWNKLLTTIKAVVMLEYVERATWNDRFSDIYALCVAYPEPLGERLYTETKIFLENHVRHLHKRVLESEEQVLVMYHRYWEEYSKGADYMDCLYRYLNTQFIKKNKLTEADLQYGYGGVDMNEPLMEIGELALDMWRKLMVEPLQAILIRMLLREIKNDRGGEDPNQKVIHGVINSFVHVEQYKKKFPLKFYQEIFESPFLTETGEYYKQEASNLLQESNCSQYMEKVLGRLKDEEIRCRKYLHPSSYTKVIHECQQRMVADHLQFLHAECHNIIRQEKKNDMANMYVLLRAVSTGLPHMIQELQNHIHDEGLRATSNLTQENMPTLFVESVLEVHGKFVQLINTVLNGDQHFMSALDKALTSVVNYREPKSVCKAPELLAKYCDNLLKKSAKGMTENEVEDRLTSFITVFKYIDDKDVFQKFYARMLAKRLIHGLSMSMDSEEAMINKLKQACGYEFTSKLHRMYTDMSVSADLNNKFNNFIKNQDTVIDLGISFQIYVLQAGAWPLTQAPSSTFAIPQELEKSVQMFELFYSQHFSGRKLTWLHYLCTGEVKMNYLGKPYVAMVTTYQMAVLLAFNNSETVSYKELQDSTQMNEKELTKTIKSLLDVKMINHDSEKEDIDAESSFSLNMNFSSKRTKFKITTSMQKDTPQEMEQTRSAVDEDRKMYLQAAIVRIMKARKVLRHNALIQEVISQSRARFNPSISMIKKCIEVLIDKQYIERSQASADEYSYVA
T1 sequence (P62877 whole entry partner): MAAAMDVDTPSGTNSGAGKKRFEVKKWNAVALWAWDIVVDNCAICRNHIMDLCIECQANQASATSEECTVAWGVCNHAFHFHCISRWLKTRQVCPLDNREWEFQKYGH
IRE1 (Homo sapiens, UniProt O75460), sequence (O75460 19-977): as the sequence (O75460 19-977) above

Cc1ncsc1-c1ccc(CNC(=O)[C@@H]2C[C@@H](O)CN2C(=O)[C@@H](NC(=O)CCCCN2CCN([C@H]3CC[C@H](Nc4ncc5ccc(=O)n(C(C)C)c5n4)CC3)CC2)C(C)(C)C)cc1 [G6374]
Dmax (IRE1 [1]; HEK-293T, 2 h, n = 3, mean ± SEM): 78%
DC50 (IRE1 [1]; estimated): 130 nM
growth inhibition (cell confluency) (AMO1 cells): concentration-dependent growth inhibition
K48-linked ubiquitination of endogenous IRE1 (IRE1 [2]): significant increase in K48-linked ubiquitination of endogenous IRE1
number of other kinases inhibited by >90% [3]: 9
